16 compounds from the CheMixHub ionic liquid set can be followed below.

A word on the viscosity: it is the resistance of a fluid to flow. Low values mean easy flow, high ones sluggish flow.

The data set in a line: xn = mol fraction of the nth substance listed.

± gives the uncertainty stated by the source.

Consider `CCO` + CCOP(=O)([O-])OCC.CC[N+]1(C)CCOCC1, for which the viscosity came out at 1.18 ± 0.07 mPa·s (293.15 K, 100 kPa, x2 = 0); 1.11 ± 0.07 mPa·s (298.15 K, 100 kPa, x2 = 0); 0.98 ± 0.06 mPa·s (303.15 K, 100 kPa, x2 = 0); 0.89 ± 0.05 mPa·s (308.15 K, 100 kPa, x2 = 0); 0.82 ± 0.05 mPa·s (313.15 K, 100 kPa, x2 = 0); 0.75 ± 0.05 mPa·s (318.15 K, 100 kPa, x2 = 0). For the same compound, the viscosity runs as follows: (323.15 K, 100 kPa, x2 = 0) 0.69 ± 0.04 mPa·s; (328.15 K, 100 kPa, x2 = 0) 0.65 ± 0.04 mPa·s; (333.15 K, 100 kPa, x2 = 0) 0.6 ± 0.04 mPa·s; (338.15 K, 100 kPa, x2 = 0) 0.56 ± 0.03 mPa·s.
The compound `CCO` + CCOP(=O)([O-])OCC.CC[n+]1ccn(C)c1 showed a viscosity (318.15 K, 100 kPa, x2 = 0) of 0.75 ± 0.05 mPa·s.
Compound `CCO` + CC[N+]1(C)CCCC1.COP(=O)([O-])OC yielded a viscosity (308.15 K, 100 kPa, x2 = 0) of 0.9 ± 0.05 mPa·s; a viscosity (318.15 K, 100 kPa, x2 = 0) of 0.75 ± 0.05 mPa·s; a viscosity (328.15 K, 100 kPa, x2 = 0) of 0.63 ± 0.04 mPa·s; a viscosity (333.15 K, 100 kPa, x2 = 0) of 0.58 ± 0.04 mPa·s.
Compound `CCO` + CC[n+]1ccccc1.N#C[N-]C#N came in with a viscosity (288.15 K, 100 kPa, x1 = 1) of 1.29 ± 0.13 mPa·s.
`CCO` + CC[n+]1ccn(C)c1.COP(=O)([O-])OC: the viscosity reads like this: (298.15 K, 100 kPa, x2 = 0) 1.08 ± 0.01 mPa·s; (328.15 K, 100 kPa, x2 = 0) 0.646 ± 0.009 mPa·s.
Consider `CCO` + CC[n+]1ccn(C)c1.COS(=O)(=O)[O-], for which the viscosity by setting is: (283.15 K, 101 kPa, x2 = 0) 1.44 ± 0.07 mPa·s; (293.15 K, 101 kPa, x2 = 0) 1.18 ± 0.07 mPa·s; (303.15 K, 101 kPa, x2 = 0) 0.98 ± 0.07 mPa·s; (313.15 K, 101 kPa, x2 = 0) 0.83 ± 0.07 mPa·s; (323.15 K, 101 kPa, x2 = 0) 0.7 ± 0.07 mPa·s.
As for `CC[n+]1ccn(C)c1.O=C([O-])[C@@H]1CCCN1` + CC[n+]1ccn(C)c1.N#C[C-](C#N)C#N, the viscosity (298.15 K, 101 kPa, x2 = 0) was found to be 1195 ± 130 mPa·s.
In turn, `CCO` + CC[n+]1ccn(C)c1.N#C[N-]C#N gave a viscosity (298.15 K, 100 kPa, x2 = 0) of 1.11 mPa·s; a viscosity (303.15 K, 100 kPa, x2 = 0) of 1.02 mPa·s; a viscosity (308.15 K, 100 kPa, x2 = 0) of 0.93 ± 0.2 mPa·s; a viscosity (313.15 K, 100 kPa, x2 = 0) of 0.85 ± 0.2 mPa·s; a viscosity (313.15 K, 101 kPa, x1 = 1) of 0.83 ± 0.04 mPa·s; a viscosity (318.15 K, 100 kPa, x2 = 0) of 0.78 ± 0.2 mPa·s. Further, the viscosity amounted to 0.71 ± 0.2 mPa·s (323.15 K, 100 kPa, x2 = 0) and 0.64 ± 0.03 mPa·s (328.15 K, 101 kPa, x1 = 1).
`CCCCn1cc[n+](CCOCCOCCOCC[n+]2ccn(CCCC)c2)c1.N#C[N-]C#N.N#C[N-]C#N` + CC[n+]1ccn(C)c1.N#C[N-]C#N + O=S(=O)([N-]S(=O)(=O)C(F)(F)F)C(F)(F)F.[Li+]: the electrical conductivity by setting is: (298 K, 100 kPa, x1 = 0.2237, x2 = 0.6826) 0.491 ± 0.02 S/m; (303 K, 100 kPa, x1 = 0.2237, x2 = 0.6826) 0.589 ± 0.024 S/m; (313 K, 100 kPa, x1 = 0.2237, x2 = 0.6826) 0.812 ± 0.032 S/m; (323 K, 100 kPa, x1 = 0.2237, x2 = 0.6826) 1.1 ± 0.044 S/m; (333 K, 100 kPa, x1 = 0.2237, x2 = 0.6826) 1.42 ± 0.057 S/m; (343 K, 100 kPa, x1 = 0.2237, x2 = 0.6826) 1.79 ± 0.071 S/m.
For the compound `CC[S+](CC)CCOCCOCCOCCOCC[S+](CC)CC.N#C[N-]C#N.N#C[N-]C#N` + CC[n+]1ccn(C)c1.N#C[N-]C#N + O=S(=O)([N-]S(=O)(=O)C(F)(F)F)C(F)(F)F.[Li+], the electrical conductivity stood at 0.811 ± 0.032 S/m (298 K, 100 kPa, x1 = 0.2317, x2 = 0.6756); 1.16 ± 0.046 S/m (303 K, 100 kPa, x1 = 0.2317, x2 = 0.6756); 1.35 ± 0.054 S/m (313 K, 100 kPa, x1 = 0.2317, x2 = 0.6756); 1.51 ± 0.061 S/m (323 K, 100 kPa, x1 = 0.2317, x2 = 0.6756); 1.93 ± 0.077 S/m (333 K, 100 kPa, x1 = 0.2317, x2 = 0.6756); 2.26 ± 0.091 S/m (343 K, 100 kPa, x1 = 0.2317, x2 = 0.6756).
Take `CC[S+](CC)CCOCC[S+](CC)CC.N#C[N-]C#N.N#C[N-]C#N` + CC[n+]1ccn(C)c1.N#C[N-]C#N + O=S(=O)([N-]S(=O)(=O)C(F)(F)F)C(F)(F)F.[Li+]: the electrical conductivity turned out to be 0.519 ± 0.021 S/m (298 K, 100 kPa, x1 = 0.2884, x2 = 0.6258); 0.632 ± 0.025 S/m (303 K, 100 kPa, x1 = 0.2884, x2 = 0.6258); 0.863 ± 0.035 S/m (313 K, 100 kPa, x1 = 0.2884, x2 = 0.6258); 1.17 ± 0.047 S/m (323 K, 100 kPa, x1 = 0.2884, x2 = 0.6258); 1.54 ± 0.062 S/m (333 K, 100 kPa, x1 = 0.2884, x2 = 0.6258); 1.95 ± 0.078 S/m (343 K, 100 kPa, x1 = 0.2884, x2 = 0.6258).
`CCO` + CC[n+]1ccn(C)c1.N#C[S-] registered a viscosity (293.15 K, 101 kPa, x2 = 0) of 1.18 ± 0.07 mPa·s and a viscosity (303.15 K, 101 kPa, x2 = 0) of 0.98 ± 0.07 mPa·s.
In the case of `Cc1ncc[nH]1` + CC[n+]1ccn(C)c1.[Cl-], the viscosity is, setting by setting: (303.15 K, 101.33 kPa, x2 = 0.667) 394 ± 16 mPa·s; (313.15 K, 101.33 kPa, x2 = 0.667) 182.1 ± 6.1 mPa·s; (323.15 K, 101.33 kPa, x2 = 0.667) 101.5 ± 2.8 mPa·s; (333.15 K, 101.33 kPa, x2 = 0.667) 57.3 ± 1.4 mPa·s; (343.15 K, 101.33 kPa, x2 = 0.667) 38 ± 0.89 mPa·s; (353.15 K, 101.33 kPa, x2 = 0.667) 27 ± 0.63 mPa·s.
In the case of `CCO` + CC[n+]1ccn(C)c1.[I-], the electrical conductivity (298.15 K, 100 kPa, x2 = 0) is 5.54e-05 ± 3.3e-06 S/m.
`CCO` + CC[n+]1ccn(CCOC)c1.N#C[S-] returned a viscosity (308.15 K, 100 kPa, x2 = 0) of 0.902 ± 0.049 mPa·s.
`CCO` + CC[n+]1ccn(CCOC)c1.O=S(=O)([N-]S(=O)(=O)C(F)(F)F)C(F)(F)F showed a viscosity (288.15 K, 100 kPa, x2 = 0) of 1.334 ± 0.014 mPa·s; a viscosity (293.15 K, 100 kPa, x2 = 0) of 1.202 ± 0.012 mPa·s; a viscosity (298.15 K, 100 kPa, x2 = 0) of 1.111 ± 0.011 mPa·s; a viscosity (303.15 K, 100 kPa, x2 = 0) of 1.003 ± 0.01 mPa·s; a viscosity (308.15 K, 100 kPa, x2 = 0) of 0.907 ± 0.009 mPa·s; a viscosity (313.15 K, 100 kPa, x2 = 0) of 0.83 ± 0.008 mPa·s. Also, the viscosity (318.15 K, 100 kPa, x2 = 0) is 0.76 ± 0.008 mPa·s.
